From patent US20220177459A1, “AROMATIC AMINE COMPOUND AND USE THEREOF IN PREPARATION OF AR AND BRD4 DUAL INHIBITORS AND REGULATORS” (HINOVA PHARMACEUTICALS INC., priority 2019, published 2022)

What follows are compounds tested on LNCaP/AR cells (assay: Inhibition of proliferation of prostate cancer cells LNCaP/AR (CCK-8)). Details: 144 h, 6 days culture, CCK-8, OD 450 nm, read-out: IC50 (μM), inhibitory activity on prostate cancer cell LNCap/AR.
Type: cell-based
Experimental: 1. Biological determination of the inhibitory effect on the proliferation of prostate cancer cells LNCaP/AR
Cell culture medium: RIPM1640 media, 10% FBS, 1% Pen Strep;
(§1) 1) LNCaP/AR cells were subcultured in cell culture medium, and the cells in good growth condition were seeded in a 96-well plate, with 80 μL per well (i.e. 1000 cells per well), and cultured overnight in a 37° C., 5% CO2 cell incubator.
2) The drug was prepared with dimethylsulfoxide (DMSO) as a 10 mM stock solution.
(§2) Immediately before use, the stock solution was diluted 3 times with DMSO, and then diluted as a 3-fold gradient to obtain 9 concentration gradients. Then, the compound of each concentration was diluted 200 times with the culture media (to ensure that the DMSO concentration in the culture system was 0.1%), and two multiple holes were set for each concentration. 20 μL of the diluted compound was added to the cell culture well (with a final concentration of 10 μM, 3.3 μM, 1.1 μM . . . ), and then shook gently to mix. In addition, three negative control wells with only cells and three blank control wells with only culture medium were included (6 wells being each added with DMSO diluted 200 times with 20 μL culture medium).
(§3) 1) After culturing for 6 days, 10 μL of CCK-8 was added to each well and continued culturing for 1 hour in a 37° C., 5% CO2 cell incubator.
(§4) 2) The absorbance (OD value) was measured at 450 nm using a multifunctional microplate reader.
(§5) 3) The data were analyzed by the Dose-response-inhibition equation in the software GraphPad Prism5, and the IC50 value was obtained.
In the case of CCN(c1ccc(C#N)c(Cl)c1)c1cc(-c2[nH]ncc2C)ccc1C [Compound 7], the IC50 is reported as 2.19 µM.
CCN(c1ccc(-n2cncn2)cc1)c1cc(-c2c(C)noc2C)ccc1C [Compound 35] was tested, and the IC50 was 1.2 µM.
In the case of CCN(c1ccc(-n2ccnc2)cc1)c1cc(-c2c(C)nn(CCO)c2C)ccc1C [Compound 23], the IC50 is reported as 6.42 µM.
CCN(c1ccc(-c2cnc[nH]2)cc1)c1cc(-c2c(C)noc2C)ccc1C [Compound 107] gave an IC50 of 3.67 µM.
Cc1ccc(-c2c(C)noc2C)cc1Nc1ccc(-c2c(C)noc2C)cc1 [Compound 119] showed an IC50 of 0.17 µM.
With CCN(c1ccc2ncn(C)c2c1)c1cc(-c2c(C)noc2C)ccc1C [Compound 132] the IC50 was 2.54 µM.
CCN(c1ccc(-c2cc(C)[nH]n2)cc1)c1cc(-c2c(C)noc2C)ccc1C [Compound 97, 5-(3,5-dimethylisoxazol-4-)-N-ethyl-2-methyl-N-(4-(5-methyl-1H-pyrazol-3-yl)phenyl)aniline] showed an IC50 of 3.23 µM.
In the case of CCN(c1ccc(-n2ccnc2)cc1)c1cc(-c2c(C)n[nH]c2C)ccc1C [Compound 21], the IC50 is reported as 3.98 µM.
In the case of CCN(c1ccc(-c2c[nH]nn2)cc1)c1cc(-c2c(C)noc2C)ccc1C [Compound 131], the IC50 is reported as 0.88 µM.
CCN(c1ccc(N)cc1)c1cc(-c2c(C)noc2C)ccc1C [Compound 100, N-1-(5-(3,5-dimethylisoxazol-4-yl)-2-methylphenyl) N1-ethylbenzene-1,4-diamine] gave an IC50 of 0.7 µM.
CCN(c1ccc(C(C)(C)C#N)cc1)c1cc(-c2c(C)noc2C)ccc1C [Compound 110] gave an IC50 of 0.93 µM.
For Cc1ccc(-c2c(C)n[nH]c2C)cc1N(CCCCCO)c1ccc(C#N)c(Cl)c1 [Compound 6], the IC50 was 3.67 µM.
With CCN(c1ccc(-n2ccnc2)cc1)c1cc2onc(C)c2cc1C [Compound 48] the IC50 was 3.7 µM.
With CCN(c1ccc(-n2ccnc2)c(Br)c1)c1cc(-c2c(C)noc2C)cnc1C [Compound 67] the IC50 was 2.03 µM.
With CCN(c1ccc(C#N)c(Cl)c1)c1cc(-c2c(C)n[nH]c2C)ccc1C [Compound 1] the IC50 was 0.33 µM.
With CCN(c1ccc(-c2ccon2)cc1)c1cc(-c2c(C)noc2C)ccc1C [Compound 134] the IC50 was 0.89 µM.
Cc1ccc(-c2c(C)noc2C)cc1N(CCO)c1ccc(-n2ccnc2)c(Br)c1 [Compound 58] was tested, and the IC50 was 2.32 µM.
Work on CCN(c1ccc2nc[nH]c2c1)c1cc(-c2c(C)noc2C)ccc1C [Compound 115, N-(5-(3,5-dimethylisoxazol-4-yl)-2-methylphenyl) N-ethyl-1H-benzo[d]imidazole-6-amine] yielded an IC50 of 1.3 µM.
CCN(c1ccc(-c2nnc[nH]2)cc1)c1cc(-c2c(C)noc2C)ccc1C [Compound 130] showed an IC50 of 1.16 µM.
CCN(c1ccc([N+](=O)[O-])cc1)c1cc(-c2c(C)noc2C)ccc1C [Compound 99] was tested, and the IC50 was 0.4 µM.
For CCN(c1ccc2[nH]ncc2c1)c1cc(-c2c(C)noc2C)ccc1C [Compound 133], the IC50 was 8.74 µM.
CCN(c1ccc(-n2cnc(Cl)c2)c(Br)c1)c1cc(-c2c(C)noc2C)ccc1C [Compound 43] gave an IC50 of 2.79 µM.
For CCN(c1ccc(S(C)(=O)=O)cc1)c1cc(-c2c(C)noc2C)ccc1C [Compound 113], the IC50 was 2.53 µM.
Work on CCN(c1ccc(-c2ncon2)cc1)c1cc(-c2c(C)noc2C)ccc1C [Compound 105, N-(4-(1,2,4-oxadiazole-3-yl)phenyl)-5-(3,5-dimethylisoxazol-4-yl)-N-ethyl-2-methylaniline] yielded an IC50 of 0.71 µM.
Compound CCCn1nc(C)c(-c2ccc(C)c(N(CC)c3ccc(C#N)c(Cl)c3)c2)c1C [Compound 5] has an IC50 of 1.45 µM.
CCN(c1ccc(-c2cn[nH]c2C)cc1)c1cc(-c2c(C)noc2C)ccc1C [Compound 126] showed an IC50 of 0.99 µM.
For CCN(c1ccc(-n2ccnc2)cc1)c1cc2c(C)noc2cc1C [Compound 47], the IC50 was 3.3 µM.
For CCN(c1ccc(C(N)=O)cc1)c1cc(-c2c(C)noc2C)ccc1C [Compound 123], the IC50 was 3.03 µM.
For CCN(c1ccc(-n2cnc(C)c2)c(Br)c1)c1cc(-c2c(C)noc2C)ccc1C [Compound 57], the IC50 was 2.38 µM.
CCN(c1ccc(C#N)c(C(F)(F)F)c1)c1cc(-c2c(C)noc2C)ccc1C [Compound 16] gave an IC50 of 1.66 µM.
Work on CCN(c1ccc(-n2ccnc2)cc1)c1cc(-c2c(C)noc2C)ccc1C [Compound 25] yielded an IC50 of 1.25 µM.
In the case of CCN(c1ccc(-c2cncn2C)cc1)c1cc(-c2c(C)noc2C)ccc1C [Compound 106], the IC50 is reported as 0.7 µM.
For CCN(c1ccc(-c2nnco2)cc1)c1cc(-c2c(C)noc2C)ccc1C [Compound 129], the IC50 was 1.13 µM.
For CCN(c1ccc(C#N)c(Cl)c1)c1cc(-c2c(C)nn(C(C)C)c2C)ccc1C [Compound 4], the IC50 was 1.4 µM.
CCN(c1ccc(C2(C#N)CCC2)cc1)c1cc(-c2c(C)noc2C)ccc1C [Compound 112] gave an IC50 of 1.86 µM.
CCN(c1ccc(-c2cn(C)nn2)cc1)c1cc(-c2c(C)noc2C)ccc1C [Compound 102, 5-(3,5-dimethylisoxazol-4-yl)-N-ethyl-2-methyl-N-(4-(1-methyl-1H-1,2,3-triazol-4-yl)phenyl)aniline] was tested, and the IC50 was 1.45 µM.
For CCN(c1ccc(-c2csnn2)cc1)c1cc(-c2c(C)noc2C)ccc1C [Compound 108, N-(4-(1,2,3-thiazol-4-yl)phenyl)-5-(3,5-dimethylisoxazol-4-yl)-N-ethyl-2-methylaniline], the IC50 was 0.76 µM.
With CCN(c1ccc(C#N)c(Cl)c1)c1cc(-c2c(C)nn(CC)c2C)ccc1C [Compound 3] the IC50 was 1.4 µM.
For CCN(c1ccc(OC(F)(F)F)cc1)c1cc(-c2c(C)noc2C)ccc1C [Compound 109], the IC50 was 4.46 µM.
For CCN(c1ccc(-c2csc(N)n2)cc1)c1cc(-c2c(C)noc2C)ccc1C [Compound 98, 4-(4-((5-(3,5-dimethylisoxazol-4-)-2-methylphenyl)(ethyl)amino)phenyl)thiazol-2-amine], the IC50 was 4.77 µM.
With CCN(c1ccc2cn[nH]c2c1)c1cc(-c2c(C)noc2C)ccc1C [Compound 114] the IC50 was 0.89 µM.

The compounds below were run against T1, androgen receptor (AR) (Homo sapiens, UniProt P10275) (assay: Inhibitory activity on the function of androgen receptor (AR), luciferase reporter in transfected cells). Details: transfected with AR and pGL4.36, testosterone 2 nM, Steady-Glo.
T1 construct: host or cells: HEK293
T1 sequence (P10275 1-920): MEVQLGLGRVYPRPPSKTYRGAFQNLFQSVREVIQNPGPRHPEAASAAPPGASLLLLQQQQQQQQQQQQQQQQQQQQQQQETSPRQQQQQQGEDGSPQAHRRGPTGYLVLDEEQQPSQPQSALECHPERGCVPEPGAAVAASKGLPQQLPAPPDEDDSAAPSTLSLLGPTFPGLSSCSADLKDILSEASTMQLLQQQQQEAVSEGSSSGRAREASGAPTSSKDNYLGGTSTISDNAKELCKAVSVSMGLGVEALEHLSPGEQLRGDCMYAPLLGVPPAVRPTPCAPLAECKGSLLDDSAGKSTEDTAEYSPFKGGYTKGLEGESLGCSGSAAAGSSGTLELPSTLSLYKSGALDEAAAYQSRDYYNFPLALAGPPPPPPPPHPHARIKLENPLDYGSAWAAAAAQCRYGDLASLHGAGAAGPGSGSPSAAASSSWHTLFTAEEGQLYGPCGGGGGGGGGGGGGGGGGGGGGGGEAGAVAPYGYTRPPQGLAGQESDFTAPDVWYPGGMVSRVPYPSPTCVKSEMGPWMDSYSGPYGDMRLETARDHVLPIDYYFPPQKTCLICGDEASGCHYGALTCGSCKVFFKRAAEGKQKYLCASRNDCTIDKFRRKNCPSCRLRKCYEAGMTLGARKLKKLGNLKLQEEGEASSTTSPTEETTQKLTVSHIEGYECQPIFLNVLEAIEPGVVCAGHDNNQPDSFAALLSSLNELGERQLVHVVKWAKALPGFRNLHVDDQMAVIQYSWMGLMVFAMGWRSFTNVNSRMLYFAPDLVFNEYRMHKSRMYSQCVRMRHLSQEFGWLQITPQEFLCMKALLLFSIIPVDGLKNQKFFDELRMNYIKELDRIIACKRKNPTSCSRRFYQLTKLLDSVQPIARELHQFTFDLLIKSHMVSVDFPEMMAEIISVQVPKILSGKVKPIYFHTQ
Type: cell-based
Experimental: Experimental Example 2 the Inhibitory Activity of the Compound According to the Present Invention on the Function of Androgen Receptor (AR)
Androgen receptor clone (Origene, Cat. No. RC235415)
pGL4.36 vector (Promega, Cat. No. E1360)
1) The cell suspension was diluted with the culture medium for seeding cells to a concentration of 4.0×10^5 cells/ml, for plating and adding transfection reagents.
2) The diluted cell suspension was inoculated into a cell culture plate, with 100 μL per well, and the plate was placed in a cell incubator and cultured overnight.
3) The transfection reagent was prepared as 10 μL/well, and added into the cell culture plate after 15 min at room temperature, then the plate was placed in a cell incubator and cultured overnight.
4) The compound was diluted by a 3-fold gradient with TECAN sampler, to obtain 8 concentration gradients, and the final DMSO concentration was 0.25%. The diluted compound was cultured in a 37° C. incubator for 30 min.
5) 250 nL of testosterone at a final concentration of 2 nM was added to the control well with an […] sampler, placed in a cell incubator, and cultured overnight.
6) Steady-Glo was added at 100 μL/well to the cell culture plate, and then the plate was left at room temperature for 15 min, followed by reading on Envision.
The data were analyzed according to the formula % Effect=(Sample value−LC)/(HC−LC)*100, using XL-fit software (provided by Business Solutions Ltd., version number XL fit 5.0). The inhibition rate of each compound against androgen receptor (AR) was calculated, and the half-inhibitory concentration IC50 of each compound against androgen receptor (AR) was further calculated.
CCN(c1ccc(-c2c(C)noc2C)cc1)c1cc(-c2c(C)noc2C)ccc1C [Compound 104] showed an IC50 of 1.3 µM.
Compound CCN(c1ccc(C(C)(C)C#N)cc1)c1cc(-c2c(C)noc2C)ccc1C [Compound 110] has an IC50 of 1.6 µM.
In the case of CCN(c1ccc(-c2ccnn2C)cc1)c1cc(-c2c(C)noc2C)ccc1C [Compound 127], the IC50 is reported as 3.4 µM.

These compounds were tested on 22RV1 cells (assay: Inhibition of proliferation of other prostate cancer cells: 22RV1). Details: Homo sapiens, same method as LNCaP/AR.
Type: cell-based
Experimental: as §1, §2, §3, §4, §5
2. Biological determination of the inhibitory effect on the proliferation of other prostate cancer cells
The inhibitory activity of the compound according to the present invention on other drug-resistant prostate cancer cells was measured by the same method as described above, in which VCaP and 22RV1 cells were commercially available.
With CCN(c1ccc(-c2ccon2)cc1)c1cc(-c2c(C)noc2C)ccc1C [Compound 134] the IC50 was 6.06 µM.
Cc1ccc(-c2c(C)noc2C)cc1Nc1ccc(Br)cc1 [Compound 120] gave an IC50 of 0.63 µM.
CCN(c1ccc(OC)cc1)c1cc(-c2c(C)noc2C)ccc1C [Compound 101] showed an IC50 of 0.07 µM.
CCN(c1ccc(-c2cn[nH]c2C)cc1)c1cc(-c2c(C)noc2C)ccc1C [Compound 126] gave an IC50 of 3.17 µM.
Compound CCN(c1ccc(C(N)=O)cc1)c1cc(-c2c(C)noc2C)ccc1C [Compound 123] has an IC50 of 5.64 µM.
CCN(c1ccc(-c2nnco2)cc1)c1cc(-c2c(C)noc2C)ccc1C [Compound 129] showed an IC50 of 9.79 µM.
